The results in this text go back to patent US7078411B2, “Phospholipid transfer protein (PLTP) and cholestoral metabolism” (priority 2001, dated 2006).

Data set [1] deals with cultured tumor cell lines. The following applies: Table 1. The text has this: To determine whether the induction of PLTP expression is topotecan specific, we evaluated the effects of camptothecin and some of its derivatives, and compared them against some protoberberines, which are a new class of organic cations that are dual poisons of topoisomerases I and II (3–5). Berberine is an isoquinoline plant alkaloid.

The subject of the next data set is PLTP expression. The data set can be described thus: Northern blot analysis of PLTP expression in HepG2 cells. In kind it is cell-based, human. Particulars: for induction of PLTP expression: 500 nM, 24 hrs (FIG. 5). The protocol: Dose response induction of PLTP was performed in HepG2 cells for 24 hrs. RNAs isolated were separated on agarose gel and then transferred to nitrocellulose filters for hybridization with a labeled full-length PLTP cDNA probe. […] Lane 1, control (untreated); 2, 1 nM; 3, 20 nM; 4, 100 nM; 5, 500 nM; and 6, 1,000 nM topotecan expression. […] This may be a result of the inhibition of transcription by topotecan at the higher dosage.
HepG2 cells were treated with the indicated drugs (500 nM) for 24 hrs. RNAs were then harvested and fractionated on agarose gel and then transferred to nitrocellulose filters for hybridization with a full length PLTP cDNA probe.
We first examined topotecan-induced PLTP expression in an independent dose response study by Northern blot analysis. […] This may be a result of the inhibition of transcription by topotecan at the higher dosage. […]

In data set [2] the test system is phospholipid transfer protein (PLTP) gene. The data set can be described thus: DNA microarray expression profiling of topotecan-treated HepG2 cells. In kind it is cell-based, human. As for the experimental part: FIG. 1 is a DNA microarray presenting expression profiling of topotecan induced HepG2 cells. HepG2 cells were treated with 500 nM of topotecan in time course study for the indicated time points in the figure. RNAs were isolated, labeled and hybridized to the array. Scan image were analyzed using the Pathway and the Cluster softwares. The results of cluster analysis are shown in TreeView. Transition of color to red indicates the upregulation, and to green is the downregulation of gene expression.
FIG. 2 is a scanned image of the PLTP gene induced by topotecan. HepG2 cells were treated with topotecan in time-course and dose response studies. The microarrays were exposed to phosphorimage screen and the scanned images were analyzed with the Pathway software. Enlarged scanned images for the induction of PLTP gene with time and dose are shown.
FIG. 3 is a DNA microarray presenting expression profiling of topotecan induced HepG2 cells. HepG2 cells were treated with various concentrations of topotecan. RNAs were isolated, labeled and hybridized to the array. Scan images were analyzed using the Pathway and the Cluster softwares. The results of cluster analysis are shown in TreeView. A representative set of genes with altered expression was plotted in the line graphs. Transition of color to red indicates the upregulation, and to green is the downregulation of gene expression.
We have used DNA microarray to monitor the expression profiles of cells in response to anticancer drug treatments, and also comparing these profiles to those obtained from cancer cells that have been selected for resistance to the corresponding agents. […]
The HepG2 cells were either transiently treated with 500 nM of topotecan for various times (1–24 hrs), or with various doses of topotecan (1–1000 nM) for 24 hrs. […] The scanned images were processed and analyzed on the Pathways™ software. Tab delimited files generated from Pathways™ were imported into Microsoft Excel® for sorting by fold changes and intensity levels (radioactivity, cpm).

Data set [3] has as its system PLTP promoter. Put plainly: PLTP promoter-luciferase reporter, transient transfection in HepG2 cells (dual luciferase assay). In kind it is cell-based, human. Particulars: 24 hrs. The protocol:
FIGS. 6A and 6B depict the transactivation of the PLTP promoter by topotecan. FIG. 6A is a schematic drawing of the PLTP gene promoter-luciferase reporter construct. The promoter was PCR amplified from a BAC clone containing the genomic sequence for the human PLTP gene. FIG. 6B graphically presents the results calibrated in terms of luciferase activity, of a study where HepG2 cells were transfected with the PLTP promoter-luciferase reporter and were then treated with various doses of topotecan for 24 hrs. Cell extracts were harvested for the dual luciferase assay (Promega, Wis.). The relative luciferase activity has been normalized with the internal control renella luciferase activity cotransfected with the promoter reporter construct, to monitor transfection efficiency.
We also determined whether induction of PLTP gene expression by topotecan is transcriptionally activated. Approximately 1.5 kb of the PLTP promoter sequence was obtained by the polymerase chain reaction (PCR) amplification of a human BAC clone (RP3-337018) containing the genomic sequence of PLTP. The PCR product consisting of the promoter region was sequenced verified and then subcloned into a luciferase reporter vector pGL2-Basic vector (Promega, Wis.) (FIG. 6A). […]
A general note: A reporter such as luciferase makes a cellular process visible.

In data set [4] the test system is PLTP promoter. The class given is cell-based, human. The following applies: HepG2/PLTPpLuc; for specificity of induction of PLTP promoter activity: 24 hours (FIG. 14). From the text:
FIG. 11 is a schematic drawing of the promoter of the phospholipid transfer protein (PLTP) gene. A 1.6 kb fragment of the PLTP gene promoter derived from a BAC clone was PCR amplified and then subcloned into a modified pXP1 luciferase reporter plasmid vector. The modified vector contained the neomycin resistance marker gene.
HepG2 cells were permanently transfected with the construct shown in FIG. 11, and selected for resistance to G418, an aminoglycoside antibiotic. Clone 1, a G418 resistant cell line isolated from the selection, designated HepG2/PLTPpLuc, was utilized for testing the effect of topotecan on induction of PLTP promoter activity. The transfectant cell line, HepG2/PLTPpLuc, was treated with topotecan (500 nM) for approximately 24 hours. Cell extracts were obtained at the end of incubation and the luciferase assay was performed with them. The luciferase activity of the topotecan treated cells (+) was plotted relative to the control (−).
FIG. 13 illustrates the time course analysis of induction of PLTP promoter activity by topotecan in HepG2/PLTPpLuc cells. The HepG2/PLTPpLuc cells were treated with 500 nM of topotecan. Cell extracts were obtained at various time points following treatment with topotecan (0, 4, 8, 12, 16, and 24 hours) and assayed for luciferase activity, which was plotted as a function of time.
The HepG2/PLTPpLuc cells were treated with either topotecan, taxol, or melphalan for 24 hours. Cell extracts were then obtained for the luciferase assay.
The luciferase reporter plasmid was constructed by cloning the PLTP promoter derived from a BAC clone into the pXP2 luciferase reporter vector. A neomycin selectable marker gene driven by the CMV early promoter was further subcloned into the PLTP-luciferase reporter plasmid (FIG. 11).
Approximately 10 μg of the PLTP-luciferase reporter plasmid was transfected using lipofectamine into HepG2 cells for about 4 hrs. Cells were washed and then further cultured and selected in the presence of 1.6 mg/ml of G418 for neomycin resistance. Media were changed every 3 days with fresh G418 added at the above concentration. Approximately 14 days later, colonies that emerged from the selection were picked using cloning cylinders and the clones were transferred to 24-well cluster dishes for further culturing and selection.
At confluence, cells were next transferred to 12-well dishes and aliquots were also transferred to 24-well dishes for screening with topotecan for induction of the PLTP promoter activity. Luciferase assay was performed using a standard luciferase assay kit from Promega.

Entries after “also recorded” stand apart in the source; their conditions may differ.

Take `CCC1(O)C(=O)OCc2c1cc1n(c2=O)Cc2cc3c(N)c4c(cc3nc2-1)OCO4` [9-NH2-10,11-MD-CPT(S)]: the Cytotoxicity result in data set [1] was “Active”. Besides, the “induction of PLTP expression” value in the data set with PLTP expression was “induced”.

As for `CC[C@]1(O)C[C@@H]2CN(CCc3c([nH]c4ccccc34)[C@@](C(=O)OC)(c3cc4c(cc3OC)N(C)[C@H]3[C@@](O)(C(=O)OC)[C@H](OC(C)=O)[C@]5(CC)C=CCN6CC[C@]43[C@@H]65)C2)C1` [vinblastine], the “induction of PLTP expression” value with PLTP expression is on record as “failed to induced PLTP gene expression; also recorded: did not induce PLTP expression”.

For `CCC1(O)C(=O)OCc2c1cc1n(c2=O)Cc2cc3c(N)c4c(cc3nc2-1)OCO4` [9-NH2-10,11-MD-CPT(R)], in data set [1], the Cytotoxicity entry is reported as “Inactive”.

On to `CC[C@@]1(O)C(=O)OCc2c1cc1n(c2=O)Cc2cc3c(CN(C)C)c(O)ccc3nc2-1` [topotecan], for which the “induction of PLTP gene expression” value in data set [2] (500 nM topotecan, after 24 hrs of exposure) is recorded as “approximately 20 fold”. Moreover, in data set [2] (500 nM topotecan, time course), the “onset of PLTP expression after exposure” value lay in the range of 10 to 15 h. For the same compound, the “induction of PLTP expression, dose response” value is given as “elevated in a dose dependent manner” in data set [2] (1–1000 nM, 24 hrs) and “dose dependent induction; also recorded: elevated with increasing doses” with PLTP expression (1–1000 nM, 24 hrs). Moreover, in the data set with PLTP promoter [3] (1 μM), the “PLTP promoter activity at the highest dose” value is reported as “inhibition of the promoter activity”. In addition, the “transactivation of PLTP promoter, dose response” value with PLTP promoter [3] (various doses) was “transactivated by topotecan dose-dependently”. Further, in the data set with PLTP expression, the “induction of PLTP expression” value is recorded as “induced”. Moreover, the “PLTP expression at the highest dose” value in the data set with PLTP expression (1 μM, 24 hrs) is “reversed”. For the same compound, the “induction of PLTP promoter activity” value in the data set with PLTP promoter [4] (500 nM, approximately 24 hours (FIG. 12)) is reported as “approximately 20 fold”. In addition, in the data set with PLTP promoter [4], the “specificity of induction of PLTP promoter activity” value (from here on “specificity”) is on record as “specific for topotecan”.

For the compound `CC[C@@]1(O)C(=O)OCc2c1cc1n(c2=O)Cc2cc3ccccc3nc2-1` [Camptothecin (CPT), Camptothecin], in data set [1], the Cytotoxicity result is on record as “Active”. For the same compound, the “induction of PLTP expression” value with PLTP expression was “induced”.

On to `CC[C@@]1(O)C(=O)OCc2c1cc1n(c2=O)Cc2cc3c(N)cccc3nc2-1` [9-NH2-CPT(S)], for which the Cytotoxicity result in data set [1] is “Active”. Further, the “induction of PLTP expression” value in the data set on PLTP expression is “induced”.

Regarding `CCc1c2c(nc3ccc(OC(=O)N4CCC(N5CCCCC5)CC4)cc13)-c1cc3c(c(=O)n1C2)COC(=O)[C@]3(O)CC` [Irinotecan (CPT-11), Irinotecan], the “induction of PLTP expression” value in the data set with PLTP expression is reported as “failed to activate PLTP expression”.

For the compound `N[C@@H](Cc1ccc(N(CCCl)CCCl)cc1)C(=O)O` [melphalan], the “specificity” value in the data set on PLTP promoter [4] was “no significant stimulation”.

Consider `CC(=O)O[C@H]1C(=O)[C@@]2(C)[C@H]([C@H](OC(=O)c3ccccc3)[C@]3(O)C[C@H](OC(=O)[C@H](O)[C@@H](NC(=O)c4ccccc4)c4ccccc4)C(C)=C1C3(C)C)[C@]1(OC(C)=O)CO[C@@H]1C[C@@H]2O` [taxol], for which the “specificity” value with PLTP promoter [4] is on record as “no significant stimulation”.
